Results on 17 compounds are retold here after PubChem BioAssay (NCI).

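Each compound was tested at five concentrations against cells in 96-well plates for 48 hours. TGI marks complete inhibition of growth.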

What all share (assay): NCI anticancer screen, dose series, 48 h
Assay [1] concerns ACHN renal.
Assay [2] has as its system HCT-116 colon.
The test system of assay [3] is RPMI-8226 leukemia.
Assay [4] has as its system NCI-H23 lung.
The subject of assay [5] is LOX IMVI melanoma.
The test system of assay [6] is MDA-MB-435.
Assay [7] concerns 786-0 renal.
Assay [8] relates to NCI-H226 lung.
Assay [9] concerns A549 NSCLC.
Assay [10] relates to COLO 205 colon.
In assay [11] the test system is NCI-H460 lung.
The subject of assay [12] is CCRF-CEM leukemia.
Assay [13] deals with A498 renal.
Assay [14] relates to KM12 colon.
The subject of assay [15] is NCI/ADR-RES ovarian.
In assay [16] the test system is SNB-19 CNS.
For assay [17], the system named is SR leukemia.
Assay [18] has as its system SW-620 colon.
In assay [19] the test system is U251 CNS.

As to `[O-][n+]1onc2c1-c1nonc1CC2`, the TGI in assay [1] was 88.2 µM; in assay [2] it was 46.2 µM; in assay [3], > 100 µM; in assay [4] it was 61.4 µM; in assay [5], 79 µM; in [6], > 100 µM. Also, the TGI in assay [7] is > 100 µM; in [8], 76.3 µM; in [9], > 100 µM; in assay [10], > 100 µM; in assay [11], > 100 µM; in assay [12] it was > 100 µM. The TGI in [13] is 83.6 µM; in assay [14], 81.5 µM; in assay [15] it was > 100 µM; in [16], > 100 µM; in assay [17] it was > 100 µM; in assay [18], > 100 µM. Further, the TGI in assay [19] is > 100 µM.

For the compound `O=C(O)CCCC#CCCCC(=O)O`, the TGI in assay [1], in [2], in assay [4], in assay [5], in [6] and in assay [7] was > 100 µM in each case. Besides, the TGI in [9], in assay [10], in assay [11], in assay [13], in assay [14] and in assay [15] was > 100 µM each time. Also, the TGI in assay [16], in assay [17] and in assay [19] was > 100 µM in each case.

For `COc1ccc(C2S/C(=C\c3cccc([N+](=O)[O-])c3)C(=O)N2NC(=O)Cc2ccccc2)cc1` (centres undefined), the TGI in [1], in assay [2], in [3], in [4], in [5] and in assay [7] was > 100 µM throughout. In addition, the TGI in assay [8], in [9], in assay [10], in assay [11], in assay [12] and in assay [13] was > 100 µM each time. Also, the TGI in assay [14], in assay [17], in assay [18] and in [19] was > 100 µM in each case.

With `CC1=NN(c2ccccc2)C(=O)C1C(=O)C(=O)Nc1ccc(C)cc1C` (centres undefined), the TGI in assay [1], in [2], in [3], in assay [4], in assay [5] and in [7] was > 100 µM in each case. In addition, the TGI in assay [8], in assay [9], in assay [10], in [11], in [12] and in [13] was > 100 µM throughout. Also, the TGI in assay [14], in assay [15], in assay [16], in assay [17], in [18] and in [19] was > 100 µM in each case.

Consider `O=C1NCN(c2ccccc2)C12CCN(CCCSc1ccc(F)cc1)CC2`, for which the TGI in assay [1] is > 80.5 µM; in [2], 28.5 µM; in assay [3], > 100 µM; in [4], 97.3 µM; in [5], 37.1 µM; in assay [6], 32.6 µM. The TGI in assay [7] is > 100 µM; in assay [8] it was > 88 µM; in assay [9] it was > 100 µM; in assay [10], 3.24 µM; in [11], > 100 µM; in assay [12] it was > 71.4 µM. The TGI in [13] is 42.9 µM; in assay [14], 65.4 µM; in assay [15], > 100 µM; in assay [16] it was > 100 µM; in assay [17], > 81.7 µM; in [18], > 100 µM. Besides, in assay [19], the TGI is > 100 µM.

Regarding `C/C(CN1C(=O)c2ccccc2C1=O)=N\NS(C)(=O)=O`, the TGI in assay [1], in assay [2], in assay [3], in assay [4], in [7] and in [8] was > 100 µM throughout. Further, the TGI in [9], in [10], in assay [11], in assay [12], in assay [13] and in assay [14] was > 100 µM each time. The TGI in assay [16], in assay [18] and in assay [19] was > 100 µM each time.

For the compound `C=CCn1c(=S)sc2c(=O)[nH]cnc21`, the TGI in assay [1], in [2], in assay [4], in assay [5], in [7] and in assay [9] was > 100 µM each time. Also, the TGI in assay [10], in assay [11], in assay [12], in assay [13], in assay [14] and in assay [16] was > 100 µM throughout. Further, the TGI in assay [17], in assay [18] and in assay [19] was > 100 µM in each case.

With `CN(C)C1COC2Cc3ccccc3C1O2` (centres undefined), the TGI in [1], in assay [2], in assay [3], in assay [4], in [5] and in [6] was > 100 µM in each case. Also, the TGI in assay [7], in assay [8], in assay [9], in [10], in assay [11] and in assay [12] was > 100 µM throughout. Further, the TGI in [13], in assay [14], in [15], in assay [16], in assay [17] and in assay [18] was > 100 µM in each case. Further, in assay [19], the TGI is > 100 µM.

On to `Clc1ccc(CCn2cncn2)c(Cl)c1`, for which the TGI in assay [1], in assay [2], in assay [4], in assay [7], in [8] and in assay [9] was > 100 µM in each case. For the same compound, the TGI in assay [10], in assay [11], in assay [12], in assay [14], in [16] and in assay [17] was > 100 µM in each case. Moreover, the TGI in assay [18] and in assay [19] was > 100 µM each time.

Consider `CC(C)[C@H](NC(=O)[C@@H](O)[C@H](N)Cc1ccccc1)C(=O)N[C@@H](Cc1ccccc1)C(=O)O`, for which the TGI in assay [1], in assay [2], in assay [3], in assay [4], in [5] and in assay [6] was > 100 µM in each case. Also, the TGI in assay [7], in assay [8], in assay [9], in assay [10], in assay [11] and in assay [12] was > 100 µM throughout. Besides, the TGI in assay [13], in [14], in assay [15], in assay [16], in assay [17] and in [18] was > 100 µM throughout. Also, the TGI in [19] is > 100 µM.

Turning to `Cc1cc(-c2ccc(Cl)cc2)c(C#N)c(=S)n1C1OC(CO)C(O)C(O)C1O` (centres undefined), the TGI in [1], in [2], in assay [4], in assay [5], in [6] and in assay [7] was > 100 µM each time. In addition, the TGI in [8], in assay [9], in assay [10], in assay [11], in assay [12] and in [13] was > 100 µM throughout. The TGI in assay [14], in assay [15], in assay [16], in assay [17] and in assay [18] was > 100 µM in each case.

Regarding `COC1=CC(=O)C2[C@H]3Cc4ccccc4[C@H]3C2(C)C1=O` (some centres undefined), the TGI in assay [1], in assay [3], in assay [4], in assay [5], in [7] and in assay [8] was > 100 µM in each case. The TGI in assay [9], in assay [10], in [11], in assay [12], in [13] and in [14] was > 100 µM in each case. The TGI in assay [16], in assay [17], in assay [18] and in assay [19] was > 100 µM throughout.

For `COc1cc([C@@H]2c3cc4c(cc3[C@@H](NC(=O)c3ccc([N+](=O)[O-])cc3)C3COC(=O)[C@@H]32)OCO4)cc(OC)c1O` (some centres undefined), the TGI in [1] came out at 1.58 µM; in assay [2], 5.32 µM; in assay [3], 3.62 µM; in [4], 1.46 µM; in assay [5] it was 5.86 µM; in [7], 1.4 µM. The TGI in assay [8] was determined as 1.82 µM; in assay [9] it was 1.53 µM; in assay [10], 10.4 µM; in assay [11], 2.38 µM; in [13], 3.9 µM; in [14], 4.19 µM. For the same compound, the figures for the TGI in [16], in [18] and in assay [19] were 6.06 µM, 4.21 µM and 1.21 µM, respectively.

Take `C/C(CC(=O)Nc1ccc([N+](=O)[O-])cc1)=N/N=C(N)N`: the TGI in assay [1], in assay [2], in assay [4], in assay [5], in assay [7] and in assay [8] was > 100 µM in each case. In addition, the TGI in assay [9], in [10], in assay [11], in assay [12], in [14] and in [18] was > 100 µM each time. Also, the TGI in [19] was > 100 µM.

As for `O=C1CSc2ccncc2N1`, the TGI in [1], in assay [2], in assay [4], in [5], in assay [7] and in [8] was > 100 µM each time. For the same compound, the TGI in assay [9], in assay [10], in [11], in assay [12], in assay [13] and in assay [16] was > 100 µM in each case. In addition, the TGI in [17], in [18] and in assay [19] was > 100 µM in each case.

With `CCCN1CN(C(C(=O)N[C@@H]2C(=O)N3C(C(=O)O)=C(C)CSC23)c2ccccc2)CSC1=S` (some centres undefined), the TGI in assay [1], in [2], in [3], in assay [4], in assay [5] and in assay [7] was > 100 µM in each case. Further, the TGI in assay [9], in assay [10], in assay [11], in [12], in assay [13] and in assay [14] was > 100 µM in each case. Also, the TGI in assay [16] and in [19] was > 100 µM each time.

For `CC1(C)CC[C@]2(C(=O)O)CC[C@]3(C)C(=CC[C@@H]4[C@@]5(C)CC[C@@H]6OC(C)(C)OC[C@@]6(C)[C@@H]5CC[C@]43C)[C@H]2C1`, the TGI in assay [1] amounted to 15.7 µM; in assay [2], 20.9 µM; in [3], 66 µM; in assay [5] it was 20.7 µM; in [6], 25.6 µM; in assay [7] it was 24 µM. Further, the TGI in [10] is 28.8 µM; in assay [11] it was 20 µM; in assay [12], 37.1 µM; in assay [13], 51.7 µM; in [15], > 100 µM; in assay [16], 96.2 µM. Also, the TGI in assay [17] was 34 µM; in [18] it was 29 µM; in assay [19] it was 20.4 µM.
